Measured values taken from article PMC10108347, “Heterobifunctional Ligase Recruiters Enable pan-Degradation of Inhibitor of Apoptosis Proteins” (Journal of Medicinal Chemistry, 2023).
Where two headings read alike, the source gives them in different places.

How the values were obtained:
VHL30 = VHL30 (Homo sapiens, UniProt P40337); assay: Immunoblotting (western blot) quantification of VHL30 levels in MM.1S cells; settings: for remaining activity at 0.1 µM: MM1.S
Experimental: (§1) To evaluate the capability of our panel of hetero-PROTACs for E3 ligase degradation, VHL19, VHL30, CRBN, cIAP1, cIAP2, and XIAP levels were quantified by western blot analyses. […] SDS-PAGE was performed, and proteins were then transferred onto PVDF membranes. Blotted membranes were blocked with 5% milk in Tris-buffered saline/Tween20 (TBST). Primary antibodies were diluted in 5% BSA in TBST, and incubations were performed overnight at 4 °C. Secondary HRP-conjugated antibodies diluted in 5% milk were incubated for 1 h at room temperature. Detection of proteins on PVDF was carried out using the WesternBright ECL HRP substrate or the WesternBright Sirius HRP substrate (Advansta, San Jose, USA) and imaged with LAS 4000× (Fujifilm). Membranes were subjected to 10 min incubation with Restore Western Blot Stripping Buffer (Thermo Fisher Scientific, Waltham, USA), followed by TBST washes. After brief re-activation with methanol, the membranes were blocked, and further probing of proteins was carried out.
(§2) Quantification of blots was performed using ImageJ software (National Institutes of Health).

XIAP = XIAP (Homo sapiens, UniProt P98170); assay: Immunoblotting (western blot) quantification of XIAP levels in MM.1S cells; settings: MM1.S, 16 h
cIAP1 = cIAP1 (Homo sapiens, UniProt Q13490); assay: Immunoblotting (western blot) quantification of cIAP1 levels in MM.1S cells; settings: MM1.S, 16 h
Experimental: as §1, §2

cIAP2 = cIAP2 (Homo sapiens, UniProt Q13489); assay: Immunoblotting (western blot) quantification of cIAP2 levels in MM.1S cells; settings: MM1.S, 16 h
Experimental: as §1, §2

[1] = tested on: IAPs (cIAP1, cIAP2, XIAP); assay: Immunoblotting of IAPs in MM.1S cells, overall degradation profile, time course and washout; format: cell-based; settings: 16 h, western blot, concentration (10 nM to 1 μM)
Experimental: Next, we examined the persistence of IAP degradation in MM.1S cells after a single exposure to 1 μM of 9 and subsequent removal of the compound. […] The reliance on CRL2^VHL was assessed with a neddylation inhibitor MLN4924, which blocks the activity of CRLs (Figure S13A).

[2] = Log D7.4 measurement by chromatographic (fast-gradient HPLC) method; settings: pH 7.4
Experimental: The system was calibrated by plotting the retention times of six different drugs (atenolol, metoprolol, labetalol, diltiazem, triphenylene, and permethrin) versus their literature-known log D7.4 in a calibration line (R^2 = 0.99). Subsequently, the mean retention times of the analytes were taken to calculate their log D7.4 values with the aid of the calibration line. At least two independent measurements of each analyte were performed.

[3] = read-out: %remaining protein XIAP, MM.1S cells, 16 h treatment at 0.1 μM, normalized to loading control and DMSO
[4] = read-out: %remaining protein cIAP1, MM.1S cells, 16 h treatment at 0.1 μM, normalized to loading control and DMSO
[5] = read-out: %remaining protein cIAP2, MM.1S cells, 16 h treatment at 0.1 μM, normalized to loading control and DMSO
[6] = 16 h, read-out: %remaining protein VHL30, MM.1S cells, 16 h treatment at 0.1 μM, normalized to loading control and DMSO
[7] = read-out: %remaining protein XIAP
[8] = read-out: %remaining protein cIAP1
[9] = read-out: %remaining protein cIAP2
[10] = 16 h, read-out: %remaining protein VHL30

Sequence of cIAP1 (Q13490 whole entry): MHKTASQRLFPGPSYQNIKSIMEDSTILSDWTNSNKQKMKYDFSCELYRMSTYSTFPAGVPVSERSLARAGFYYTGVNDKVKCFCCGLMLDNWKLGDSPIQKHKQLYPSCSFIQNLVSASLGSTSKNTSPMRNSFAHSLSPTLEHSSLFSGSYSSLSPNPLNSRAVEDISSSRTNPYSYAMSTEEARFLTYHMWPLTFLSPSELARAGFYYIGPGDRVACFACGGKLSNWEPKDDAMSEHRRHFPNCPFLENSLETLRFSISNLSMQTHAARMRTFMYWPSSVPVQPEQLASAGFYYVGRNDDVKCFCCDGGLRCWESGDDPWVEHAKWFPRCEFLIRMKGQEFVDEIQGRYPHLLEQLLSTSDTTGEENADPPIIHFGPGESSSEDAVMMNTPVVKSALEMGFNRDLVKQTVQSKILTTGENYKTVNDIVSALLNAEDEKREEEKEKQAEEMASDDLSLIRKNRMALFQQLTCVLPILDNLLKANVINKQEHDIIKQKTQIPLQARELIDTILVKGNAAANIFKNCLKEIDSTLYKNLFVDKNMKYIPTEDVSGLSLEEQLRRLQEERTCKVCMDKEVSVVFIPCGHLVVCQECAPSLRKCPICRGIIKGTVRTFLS
Sequence of VHL30 (P40337 whole entry): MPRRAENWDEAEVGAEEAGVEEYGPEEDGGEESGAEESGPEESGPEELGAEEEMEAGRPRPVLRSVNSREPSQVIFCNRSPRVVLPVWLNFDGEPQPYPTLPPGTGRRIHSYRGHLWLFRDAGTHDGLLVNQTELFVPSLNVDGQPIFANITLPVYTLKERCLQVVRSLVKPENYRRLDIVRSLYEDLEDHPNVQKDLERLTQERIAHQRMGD
Sequence of cIAP2 (Q13489 whole entry): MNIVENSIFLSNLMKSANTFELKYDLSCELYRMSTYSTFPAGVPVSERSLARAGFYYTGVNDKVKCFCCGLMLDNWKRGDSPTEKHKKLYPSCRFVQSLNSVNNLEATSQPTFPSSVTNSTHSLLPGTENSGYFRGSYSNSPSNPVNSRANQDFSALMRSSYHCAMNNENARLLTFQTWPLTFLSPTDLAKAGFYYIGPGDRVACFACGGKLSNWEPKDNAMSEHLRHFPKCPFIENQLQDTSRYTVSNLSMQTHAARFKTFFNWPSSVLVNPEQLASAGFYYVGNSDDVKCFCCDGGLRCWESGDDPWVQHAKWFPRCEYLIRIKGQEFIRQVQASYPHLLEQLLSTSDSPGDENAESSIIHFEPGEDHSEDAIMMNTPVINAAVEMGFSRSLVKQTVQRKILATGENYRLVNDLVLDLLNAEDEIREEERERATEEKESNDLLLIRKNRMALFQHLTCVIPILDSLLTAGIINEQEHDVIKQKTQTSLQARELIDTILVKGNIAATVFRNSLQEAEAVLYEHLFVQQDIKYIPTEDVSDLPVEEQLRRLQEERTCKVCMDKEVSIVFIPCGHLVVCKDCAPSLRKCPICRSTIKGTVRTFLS
Sequence of XIAP (P98170 whole entry): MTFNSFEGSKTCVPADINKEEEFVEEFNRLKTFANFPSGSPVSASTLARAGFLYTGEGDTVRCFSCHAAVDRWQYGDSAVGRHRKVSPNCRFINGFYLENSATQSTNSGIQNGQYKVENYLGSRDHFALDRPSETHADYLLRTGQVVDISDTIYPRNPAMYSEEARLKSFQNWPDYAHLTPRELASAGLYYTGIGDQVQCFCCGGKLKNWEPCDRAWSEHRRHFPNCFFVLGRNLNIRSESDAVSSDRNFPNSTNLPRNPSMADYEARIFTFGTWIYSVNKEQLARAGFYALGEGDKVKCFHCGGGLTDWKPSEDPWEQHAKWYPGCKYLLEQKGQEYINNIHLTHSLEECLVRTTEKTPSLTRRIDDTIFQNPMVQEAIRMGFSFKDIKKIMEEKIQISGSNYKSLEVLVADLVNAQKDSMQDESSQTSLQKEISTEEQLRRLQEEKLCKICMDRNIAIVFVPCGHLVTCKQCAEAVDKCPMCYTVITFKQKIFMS

SMILES	remaining activity at 0.1 µM (XIAP; [3])	remaining activity at 0.1 µM (cIAP1; [4])	remaining activity at 0.1 µM (cIAP2; [5])	remaining activity at 0.1 µM (VHL30; [6])	IAP degradation profile (in words) [1]	further results
Cc1ncsc1-c1ccc(CNC(=O)[C@@H]2C[C@@H](O)CN2C(=O)[C@@H](NC(=O)COCCOCCOCCOCCOCCOCC(=O)N[C@H](C(=O)N2C[C@H](O)C[C@H]2C(=O)NCc2ccc(-c3scnc3C)cc2)C(C)(C)C)C(C)(C)C)cc1 [CM11, reference compound]						VHL30 degradation (in words) (VHL30; MM.1S cells, western blot): strong and dose-dependent VHL30 degradation
CN[C@@H](C)C(=O)N[C@H](C(=O)N1C[C@@H](Oc2cccc(OCCCCOCCCC(=O)N[C@H](C(=O)N3C[C@H](O)C[C@H]3C(=O)NCc3ccc(-c4scnc4C)cc3)C(C)(C)C)c2)C[C@H]1C(=O)N[C@@H]1CCCc2ccccc21)C1CCCCC1 [PROTAC 3, (2S,4S)-1-((S)-2-Cyclohexyl-2-((S)-2-(methylamino)propanamido)acetyl)-4-(3-(4-(4-(((S)-1-((2S,4R)-4-hydroxy-2-((4-(4-methylthiazol-5-yl)benzyl)carbamoyl)pyrrolidin-1-yl)-3,3-dimethyl-1-oxobutan-2-yl)amino)-4-oxobutoxy)butoxy)phenoxy)-N-((R)-1,2,3,4-tetrahydronaphthalen-1-yl)pyrrolidine-2-carboxamide]	4%	3%	30%	29%		VHL30 protein degradation (VHL30; MM.1S cells, 16 h, 0.1 μM, quantified by western blot): 71%
CN[C@@H](C)C(=O)N[C@H](C(=O)N1C[C@@H](Oc2cccc(OCCOCCOCCOCC(=O)N[C@H](C(=O)N3C[C@H](O)C[C@H]3C(=O)NCc3ccc(-c4scnc4C)cc3)C(C)(C)C)c2)C[C@H]1C(=O)N[C@@H]1CCCc2ccccc21)C1CCCCC1 [PROTAC 5, (2S,4R)-1-((S)-2-(tert-Butyl)-14-(3-(((3S,5S)-1-((S)-2-cyclohexyl-2-((S)-2-(methylamino)propanamido)acetyl)-5-(((R)-1,2,3,4-tetrahydronaphthalen-1-yl)carbamoyl)pyrrolidin-3-yl)oxy)phenoxy)-4-oxo-6,9,12-trioxa-3-azatetradecanoyl)-4-hydroxy-N-(4-(4-methylthiazol-5-yl)benzyl)pyrrolidine-2-carboxamide]	2%	2%	37%	37%		
CN[C@@H](C)C(=O)N[C@H](C(=O)N1C[C@@H](Oc2cccc(OCCCCCCOCCCCCOCCCCC(=O)N[C@H](C(=O)N3C[C@H](O)C[C@H]3C(=O)NCc3ccc(-c4scnc4C)cc3)C(C)(C)C)c2)C[C@H]1C(=O)N[C@@H]1CCCc2ccccc21)C1CCCCC1 [PROTAC 7, (2S,4S)-1-((S)-2-Cyclohexyl-2-((S)-2-(methylamino)propanamido)acetyl)-4-(3-((6-((5-((5-(((S)-1-((2S,4R)-4-hydroxy-2-((4-(4-methylthiazol-5-yl)benzyl)carbamoyl)pyrrolidin-1-yl)-3,3-dimethyl-1-oxobutan-2-yl)amino)-5-oxopentyl)oxy)pentyl)oxy)hexyl)oxy)phenoxy)-N-((R)-1,2,3,4-tetrahydronaphthalen-1-yl)pyrrolidine-2-carboxamide]						remaining activity at 0.1 µM (XIAP; [7]): 3%; remaining activity at 0.1 µM (cIAP1; [8]): 2%; remaining activity at 0.1 µM (cIAP2; [9]): 32%; remaining activity at 0.1 µM (VHL30; [10]): 83%
CN[C@@H](C)C(=O)N[C@H](C(=O)N1C[C@@H](Oc2cccc(OCCCCCCOCCCCCCOCCCCCC(=O)N[C@H](C(=O)N3C[C@H](O)C[C@H]3C(=O)NCc3ccc(-c4scnc4C)cc3)C(C)(C)C)c2)C[C@H]1C(=O)N[C@@H]1CCCc2ccccc21)C1CCCCC1 [PROTAC 8, (2S,4S)-1-((S)-2-Cyclohexyl-2-((S)-2-(methylamino)propanamido)acetyl)-4-(3-((6-((6-((6-(((S)-1-((2S,4R)-4-hydroxy-2-((4-(4-methylthiazol-5-yl)benzyl)carbamoyl)pyrrolidin-1-yl)-3,3-dimethyl-1-oxobutan-2-yl)amino)-6-oxohexyl)oxy)hexyl)oxy)hexyl)oxy)phenoxy)-N-((R)-1,2,3,4-tetrahydronaphthalen-1-yl)pyrrolidine-2-carboxamide]	4%	3%	36%	95%		
CN[C@H](C)C(=O)N[C@H](C(=O)N1C[C@@H](Oc2cccc(OCCCCC(=O)N[C@H](C(=O)N3C[C@H](O)C[C@H]3C(=O)N[C@@H](C)c3ccc(-c4scnc4C)cc3)C(C)(C)C)c2)C[C@H]1C(=O)N[C@@H]1CCCc2ccccc21)C1CCCCC1 [PROTAC 10a, (2S,4S)-1-((S)-2-Cyclohexyl-2-((R)-2-(methylamino)propanamido)acetyl)-4-(3-((5-(((S)-1-((2S,4R)-4-hydroxy-2-(((S)-1-(4-(4-methylthiazol-5-yl)phenyl)ethyl)carbamoyl)pyrrolidin-1-yl)-3,3-dimethyl-1-oxobutan-2-yl)amino)-5-oxopentyl)oxy)phenoxy)-N-((R)-1,2,3,4-tetrahydronaphthalen-1-yl)pyrrolidine-2-carboxamide]	8%	6%	37%	41%	pan-IAP	
Cc1ncsc1-c1ccc([C@H](C)NC(=O)[C@@H]2C[C@@H](O)CN2C(=O)[C@@H](NC(=O)CCCCOc2cccc(O[C@H]3C[C@@H](C(=O)N[C@@H]4CCCc5ccccc54)N(C(=O)[C@@H](NC(=O)[C@H](C)N(C)C)C4CCCCC4)C3)c2)C(C)(C)C)cc1 [PROTAC 10b, (2S,4S)-1-((S)-2-Cyclohexyl-2-((S)-2-(dimethylamino)propanamido)acetyl)-4-(3-((5-(((S)-1-((2S,4R)-4-hydroxy-2-(((S)-1-(4-(4-methylthiazol-5-yl)phenyl)ethyl)carbamoyl)pyrrolidin-1-yl)-3,3-dimethyl-1-oxobutan-2-yl)amino)-5-oxopentyl)oxy)phenoxy)-N-((R)-1,2,3,4-tetrahydronaphthalen-1-yl)pyrrolidine-2-carboxamide]	66%	2%	27%	63%	cIAP1 and cIAP2 degradation	
CC(=O)N(C)[C@@H](C)C(=O)N[C@H](C(=O)N1C[C@@H](Oc2cccc(OCCCCC(=O)N[C@H](C(=O)N3C[C@H](O)C[C@H]3C(=O)N[C@@H](C)c3ccc(-c4scnc4C)cc3)C(C)(C)C)c2)C[C@H]1C(=O)N[C@@H]1CCCc2ccccc21)C1CCCCC1 [PROTAC 10c, (2S,4S)-1-((S)-2-Cyclohexyl-2-((S)-2-(N-methylacetamido)propanamido)acetyl)-4-(3-((5-(((S)-1-((2S,4R)-4-hydroxy-2-(((S)-1-(4-(4-methylthiazol-5-yl)phenyl)ethyl)carbamoyl)pyrrolidin-1-yl)-3,3-dimethyl-1-oxobutan-2-yl)amino)-5-oxopentyl)oxy)phenoxy)-N-((R)-1,2,3,4-tetrahydronaphthalen-1-yl)pyrrolidine-2-carboxamide]	88%	94%	> 99%	> 99%	inactivated PROTACs	
CN[C@@H](C)C(=O)N[C@H](C(=O)N1C[C@@H](Oc2cccc(OCCCCCCOCCCCCOCCCCCOc3cc(-c4scnc4C)ccc3CNC(=O)[C@@H]3C[C@@H](O)CN3C(=O)[C@H](C(C)C)N3Cc4ccccc4C3=O)c2)C[C@H]1C(=O)N[C@@H]1CCCc2ccccc21)C1CCCCC1 [PROTAC 18, (2S,4S)-1-((S)-2-Cyclohexyl-2-((S)-2-(methylamino)propanamido)acetyl)-4-(3-((6-((5-((5-(2-(((2S,4R)-4-hydroxy-1-((S)-3-methyl-2-(1-oxoisoindolin-2-yl)butanoyl)pyrrolidine-2-carboxamido)methyl)-5-(4-methylthiazol-5-yl)phenoxy)pentyl)oxy)pentyl)oxy)hexyl)oxy)phenoxy)-N-((R)-1,2,3,4-tetrahydronaphthalen-1-yl)pyrrolidine-2-carboxamide]						chromatographic logD [2]: 5.6; remaining activity at 0.1 µM (XIAP; [7]): 6%; remaining activity at 0.1 µM (cIAP1; [8]): 5%; remaining activity at 0.1 µM (cIAP2; [9]): 37%; remaining activity at 0.1 µM (VHL30; [10]): 88%
CN[C@@H](C)C(=O)N[C@H](C(=O)N1C[C@@H](Oc2cccc(OCCCCCCOCCCCCCOCCCCCCNc3cccc4c3C(=O)N(C3CCC(=O)N(C)C3=O)C4=O)c2)C[C@H]1C(=O)N[C@@H]1CCCc2ccccc21)C1CCCCC1 (stereo partly drawn) [PROTAC 29, (2S,4S)-1-((S)-2-Cyclohexyl-2-((S)-2-(methylamino)propanamido)acetyl)-4-(3-((6-((6-((6-((2-(1-methyl-2,6-dioxopiperidin-3-yl)-1,3-dioxoisoindolin-4-yl)amino)hexyl)oxy)hexyl)oxy)hexyl)oxy)phenoxy)-N-((R)-1,2,3,4-tetrahydronaphthalen-1-yl)pyrrolidine-2-carboxamide]						chromatographic logD [2]: 7.4
